Values after ≈ are worked out from the molar mass of the structure shown.
Experiments:
[1] = biological target: Voltage-gated inwardly rectifying potassium channel KCNH2 (Homo sapiens, UniProt Q12809); assay: Displacement of [3H]-dofetilite from human ERG (unknown origin); type: toxicity
[2] = Solubility of the compound; type: physicochemical
Toll-like receptor 7 = biological target: T1, Toll-like receptor 7 (Mus musculus, UniProt P58681); assay: Antagonist activity at TLR7 in mouse Splenocyte assessed as reduction in IFN-alpha level measured after 20 hrs by Spectramax M5 method; type: cell-based
T1 sequence (P58681 whole entry): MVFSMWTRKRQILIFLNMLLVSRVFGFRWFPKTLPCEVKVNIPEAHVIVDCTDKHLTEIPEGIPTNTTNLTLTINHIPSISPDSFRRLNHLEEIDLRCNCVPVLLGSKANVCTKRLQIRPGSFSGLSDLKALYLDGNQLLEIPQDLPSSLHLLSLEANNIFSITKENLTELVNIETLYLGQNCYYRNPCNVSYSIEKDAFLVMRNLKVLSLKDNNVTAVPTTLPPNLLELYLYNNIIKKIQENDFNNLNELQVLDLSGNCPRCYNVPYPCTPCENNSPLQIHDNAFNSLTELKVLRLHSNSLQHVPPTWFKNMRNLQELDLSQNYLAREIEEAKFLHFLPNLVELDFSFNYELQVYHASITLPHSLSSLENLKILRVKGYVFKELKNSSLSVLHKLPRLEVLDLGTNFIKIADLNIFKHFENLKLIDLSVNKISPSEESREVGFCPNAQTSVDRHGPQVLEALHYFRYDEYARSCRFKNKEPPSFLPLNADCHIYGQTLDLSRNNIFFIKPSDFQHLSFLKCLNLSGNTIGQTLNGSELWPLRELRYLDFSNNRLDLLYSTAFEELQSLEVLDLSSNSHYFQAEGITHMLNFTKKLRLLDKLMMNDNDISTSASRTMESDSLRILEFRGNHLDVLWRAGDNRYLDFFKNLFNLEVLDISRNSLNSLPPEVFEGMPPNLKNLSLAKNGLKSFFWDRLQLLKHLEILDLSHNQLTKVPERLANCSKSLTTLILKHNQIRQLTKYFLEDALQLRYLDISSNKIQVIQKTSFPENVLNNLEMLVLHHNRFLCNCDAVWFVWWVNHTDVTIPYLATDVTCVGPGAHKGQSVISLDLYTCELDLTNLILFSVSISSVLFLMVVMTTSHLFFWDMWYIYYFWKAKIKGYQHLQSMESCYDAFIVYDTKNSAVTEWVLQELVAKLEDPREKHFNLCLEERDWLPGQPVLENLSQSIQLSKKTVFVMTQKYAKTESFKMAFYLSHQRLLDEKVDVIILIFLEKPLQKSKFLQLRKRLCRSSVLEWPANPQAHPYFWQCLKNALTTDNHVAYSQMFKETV

Voltage-gated inwardly rectifying potassium channel KCNH2, sequence (Q12809 whole entry): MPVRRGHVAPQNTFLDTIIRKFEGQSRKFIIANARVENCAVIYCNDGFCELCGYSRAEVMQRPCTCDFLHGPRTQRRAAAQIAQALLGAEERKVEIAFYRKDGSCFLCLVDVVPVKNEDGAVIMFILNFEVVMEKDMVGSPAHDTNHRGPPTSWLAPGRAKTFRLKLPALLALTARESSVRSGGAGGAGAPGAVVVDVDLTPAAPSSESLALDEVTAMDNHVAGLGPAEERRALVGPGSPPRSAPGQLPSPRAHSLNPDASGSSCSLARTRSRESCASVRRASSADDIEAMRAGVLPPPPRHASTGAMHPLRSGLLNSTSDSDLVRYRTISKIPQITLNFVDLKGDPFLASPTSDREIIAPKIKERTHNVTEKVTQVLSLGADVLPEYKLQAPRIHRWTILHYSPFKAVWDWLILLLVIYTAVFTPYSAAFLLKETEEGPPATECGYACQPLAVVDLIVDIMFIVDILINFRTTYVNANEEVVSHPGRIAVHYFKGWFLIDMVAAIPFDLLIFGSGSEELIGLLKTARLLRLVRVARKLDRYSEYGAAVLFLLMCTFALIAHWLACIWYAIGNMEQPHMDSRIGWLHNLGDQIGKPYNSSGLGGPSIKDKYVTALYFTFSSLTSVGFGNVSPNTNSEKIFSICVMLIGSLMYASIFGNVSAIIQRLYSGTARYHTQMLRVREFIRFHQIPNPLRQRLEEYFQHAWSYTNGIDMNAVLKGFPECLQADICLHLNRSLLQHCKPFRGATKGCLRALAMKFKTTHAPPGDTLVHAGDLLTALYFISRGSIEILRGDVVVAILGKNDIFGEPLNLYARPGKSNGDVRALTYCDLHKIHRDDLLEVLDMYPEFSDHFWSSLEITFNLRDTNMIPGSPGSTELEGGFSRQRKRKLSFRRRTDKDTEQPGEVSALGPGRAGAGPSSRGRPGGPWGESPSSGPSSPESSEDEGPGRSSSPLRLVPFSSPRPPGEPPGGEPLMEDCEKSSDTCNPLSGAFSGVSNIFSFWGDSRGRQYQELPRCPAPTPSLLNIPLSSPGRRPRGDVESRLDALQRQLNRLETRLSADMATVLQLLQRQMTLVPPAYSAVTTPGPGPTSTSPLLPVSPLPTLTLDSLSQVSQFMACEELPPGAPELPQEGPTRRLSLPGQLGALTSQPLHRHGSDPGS

In the case of `Cc1cc(-c2cnc(OCC34CCC(N)(CC3)CC4)c(C)c2)c2cnn(C)c2n1`, the IC50 [1] is reported as 3.4 µM, the solubility [2] is reported as 110 µM (≈ 43.1 µg/mL) and the IC50 (Toll-like receptor 7) is reported as < 0.005 µM.
